Measurements: patent publication US4876282A, “1-Phenylalkylamines as selective serotonin uptake inhibitors” (Eli Lilly and Company, priority 1987, dated 1989)
Where a name gives a salt, the structure may show the parent alone.

System: 5HT uptake
Assay: Inhibition of 5HT uptake in vitro (synaptosomal uptake of 3H-serotonin, rat cerebral cortex)
Type: biochemical, Sprague-Dawley rat
Details: rat cortical synaptosomes, 37° C., 5 min, 50 nM 3H-5HT; tested as oxalate salt; read-out: IC50 5HT (concentration needed to inhibit 50% of serotonin uptake)
Protocol: This general procedure is set forth by Wong et al., in Drug Development Research 6:397-403 (1985).
Male Sprague-Dawley rats (110-150 g) from Harlan Industries (Cumberland, Ind.) were fed Purina Chow ad libitum for at least 3 days before being used in the studies. Rats were killed by decapitation. Whole brains were removed and dissected. Cerebral cortex was homogenized in 9 volumes of a medium containing 0.32 M sucrose and 10 mM glucose. Crude synaptosomal preparations were isolated after differential centrifugation at 1,000 g for 10 min. and 17,000 g for 28 min. The final pellets were suspended in the same medium and kept in ice until use within the same day.
Synaptosomal uptake of ^3 H-serotonin(^3 H-5-hydroxytryptamine, ^3 H-5HT) was determined as follows. Cortical synaptosomes (equivalent to 1 mg of protein) were incubated at 37° C. for 5 min in 1 ml of Krebsbicarbonate medium containing also 10 mM glucose, 0.1 mM iproniazid, 1 mM ascorbic acid, 0.17 mM EDTA and 50 nM ^3 H-5HT. The reaction mixture was immediately diluted with 2 ml of ice-chilled Krebs-bicarbonatebuffer and filtered under vacuum with a cell harvester (Brandel, Gaithersburg, Md). Filters were rinsed twice with approximately 5 ml of ice-chilled 0.9% saline and were transferred to a counting vial containing 10 ml of scintillation fluid (PCS, Amersham, Arlington Heights, Il). Radioactivity was measured by a liquid scintillation spectrophotometer. Accumulation of ^3 H-5HT at 4° C. represented the background and was subtracted from all samples.
The numbers in parentheses represent percent inhibition at 1000 nM.

`CN(C)C(CCCc1cccc2ccccc12)c1ccccc1` (stereo not shown) [Example 2, N,N-Dimethyl-1-phenyl-4-(1-naphthalenyl)butylaminium oxalate] showed an IC50 of 30 nM.
Molecule `CNC(CCCc1cccc2ccccc12)c1ccccc1` (stereo not shown) [Example 3, N-Methyl-1-phenyl-4-(1-naphthalenyl)butyl-aminium oxalate] has an IC50 of 70 nM.
Work on `NC(CCCc1cccc2ccccc12)c1ccccc1` (stereo not shown) [Example 1, 1-Phenyl-4-(1-napthalenyl)butylaminium oxalate] yielded an IC50 of 240 nM.
In the case of `CN(C)C(CCc1cccc2ccccc12)c1ccccc1` (stereo not shown) [Example 4, N,N-Dimethyl-1-phenyl-3-(1-naphthalenyl)propylaminium oxalate], the IC50 is reported as 240 nM.
